The source of these data is patent US5770573A, “CS-1 peptidomimetics, compositions and methods of using the same” (Cytel Corporation, priority 1995, dated 1998).

Square brackets hold non-standard residues; d marks the D form. Peptide text beside a SMILES is read from it. * marks the point of attachment. PhAc = O=C(Cc1ccccc1)*

The test system of experiment [1] is delayed-type hypersensitivity murine model. In words: Adoptive transfer delayed type hypersensitivity in mice (oxazolone). Particulars: 6 mg/kg/day s.c. by implanted pump for 24 hours; versus saline. The class given is in vivo, mouse. The procedure: An adoptive transfer delayed-type hypersensitivity murine model has been developed using splenic T cells primed to oxazolone. This model is described in Elices et al., Clin. Exp. Rheum., 11 (Suppl. 8):577-580 (1993), whose procedures were followed here.
Thus, BALB/c mice were shaved on the belly and painted (50 μl on the belly and 5 μl on each paw) with three percent oxazolone in acetone/olive oil (4:1) at days zero and 1. At day 5, the mice were sacrificed, their spleens removed, and splenic T cells were obtained via nylon wool columns.
Normal saline or saline containing 25×10^6 /animal of the oxazolone-immune T cells were separately injected into naive mice. The mice were then challenged by painting 10 μl of 2 percent oxazolone onto one ear each. All procedures were carried out under sterile conditions and in endotoxin-free buffers.
Prior to challenge or saline injection, the mice were implanted with pumps that subcutaneously administered normal saline, normal saline containing the compound, Compound ID No. 896.52, N-phenylacetyl-Leu-Asp-Phe-D-Pro-NH2, or normal saline containing a compound with a scrambled sequence continually at 6 mg/kg/day for a 24-hour time period. The swelling diameter at the site of challenge or saline injection was measured with a microcaliper 24 hours thereafter.
An expanded study was carried out as described above except that a scrambled compound control was not used as a control for further inhibitor compounds of Table 1 with larger groups of mice. Statistical analyses were carried out versus injection of vehicle alone.

Experiment [2] relates to rabbit cardiac allograft coronary arteries. In words: Rabbit cardiac allograft model. For Expression on Coronary Arteries: ICAM-1: key: -: negative; ±: minimal; +: little; ++: moderately abundant; +++: very abundant. For Expression on Coronary Arteries: Macrophages: key: -: negative; ±: minimal; +: little; ++: moderately abundant; +++: very abundant. For Expression on Coronary Arteries: T cells: key: -: negative; ±: minimal; +: little; ++: moderately abundant; +++: very abundant. For Expression on Coronary Arteries: Total Fibronectin: key: -: negative; ±: minimal; +: little; ++: moderately abundant; +++: very abundant. The class given is in vivo. From the text: New Zealand white rabbit SPF hearts were allografted into the necks of similar rabbits to assay a graft-vs-host immunorejection model and the affect of a contemplated compound on that immunoinflammatory response.
Experimental animal model New Zealand white female rabbits (Charles River Lab., Saint Laurent, Quebec), between 3.5 and 4 kg underwent heterotopic cardiac transplant following an experimental protocol previously described [Alonso et al., Am. J. Pathol., 87:415-442 (1977); Clausell et al., Circulation, 89:2768-2779 (1994)]. The animals were unselected to favor an HLA-mismatch, the host rabbits were Pasteurella-free and the donors, outbred animals. Both host and donor rabbits were fed Purina 5321-0.5 percent cholesterol diet (Research Diets Inc., New Brunswick, N.J.), a strategy that has proven useful in accelerating the process of allograft arteriopathy [Alonso et al., Am. J. Pathol., 87:415-442 (1977)]. The diet was commenced four days prior to the transplant and continued in the recipient of the transplant until the completion of the experimental period.
The technique of heterotopic cardiac transplantation has been previously described [Clausell et al., Circulation, 89:2768-2779 (1994)]. Briefly, a vertical incision was performed in the anterior aspect of the neck of the recipient rabbit and the left common carotid artery and the ipsilateral external jugular vein were isolated. The cardiac allograft was placed in the neck by anastomosing the aorta end-to-side to the recipient's carotid artery and the pulmonary end-to-side to the recipient's external jugular vein, following a total period of ischemia for the donor hearts of approximately 30 minutes. Postoperative care was in compliance with the Principles of Laboratory Animal Care formulated by the Canadian National Society for Medical Research.
Beginning the day of the transplant, the animals were randomized and treated with either scrambled compound (control group) at 1 mg/kg s.c. or the inhibitor compound at 1 mg/kg s.c. The doses of the compounds were empirically extrapolated to the in vivo model based on preliminary in vitro studies, of Table 1. No other immunosuppression therapy was administered. The grafts were monitored daily by palpation and maintained for 7 to 8 days, a previously described endpoint that was associated with myocardial rejection (impaired cardiac contractility) and development of the allograft arteriopathy in this model [Clausell et al., Circulation, 89:2768-2779 (1994)]. A total of fourteen animals were studied in the control (n=7) and treated (n=7) groups.
Preparation of the hearts The animals were sacrificed using a lethal dose of euthanol (480 mg i.v.) (MTC Pharmaceutical, Cambridge, Oreg.), host and donor hearts were removed, and the coronary arteries were perfused with saline through the aorta, followed by light fixation by perfusion with 2 percent paraformaldehyde (Sigma, St, Louis, Mo.). […] Different sections of the hearts were either saved in 10 percent formalin (BDH Inc., Toronto, ON) for light microscopy studies or immediately frozen in O.T.C. Compound Tissue Tek (Miles Inc., Elkart, In.) for specific immunohistochemistry studies.
Three different paraffin-embedded tissue sections from host and donor hearts from both control and treated rabbits were stained by the Movat pentachrome method for light microscopy. Morphometric analysis was performed using a Zeiss microscope attached to a computer-generated video analysis system (Perceptics Inc., NuVision software), as described in Clausell et al., Circulation, 89:2768-2779 (1994). The number of vessels with intimal lesions were counted in all three heart sections from each animal studied and are expressed as a percentage of the total vessel number.
In the host hearts, 999 vessels in the control group and 1054 vessels in the treated group were analyzed. In the donor hearts, 827 vessels in the control group and 617 vessels in the treated group were analyzed. […]

For experiment [3], the system named is asthmatic sheep. In words: Treatment of asthmatic sheep (Ascaris suum antigen). Particulars: 24 hours after challenge; pre-challenge about 20-23 BU. The class given is in vivo. On the procedure: Six asthmatic sheep were treated in a double blind cross-over study. […] This study was carried out generally as described in Abraham et al., J. Clin. Invest., 93:776-787 (1994).
The inhibitor compound used here was Compound ID No. 896.52, N-phenylacetyl-Leu-Asp-Phe-D-Pro-NH2, with a control compound that comprised the previously described compound having the same residues in a scrambled sequence. The vehicle for the nebulized compounds was phosphate-buffered saline. The compounds were administered at a dose of 1 mg/kg each, twice a day for three days prior to challenge, as well as 0.5 hours prior to and four hours post challenge on day 4. Because this was a crossover study, each animal received one or the other treatment, followed by a rest and then the other treatment. Each animal therefore served as its own control.
Post challenge airway responsiveness was also assayed. Here, specific lung resistance, SRL, returned to baseline values 24 hours after challenge, however, the sheep were hyperresponsive to inhaled carbachol at that time.

For `CC(C)C[C@H](NC(=O)[C@H](CC(=O)O)NC(=O)Cc1ccccc1)C(=O)N[C@@H](Cc1ccccc1)C(=O)N1CCC[C@@H]1C(N)=O` [Compound ID No. 1066.02, N-phenylacetyl-Asp-Leu-Phe-D-Pro-NH2, reference compound] (PhAc-DLF[dP]-NH2), in experiment [1], the “swelling at challenge site (initial study, FIG. 5)” value is given as “no reduction of inflammation”. Besides, in experiment [2] (1 mg/kg s.c., 7 to 8 days), the “Expression on Coronary Arteries: ICAM-1” value is “+”, the “Expression on Coronary Arteries: Macrophages” value is listed as “+”, the “Expression on Coronary Arteries: T cells” value is “++” and the “Expression on Coronary Arteries: Total Fibronectin” value was “++”. For the same compound, the “Expression on Coronary Arteries: VCAM-1” value in experiment [2] (1 mg/kg s.c., 7 to 8 days) is “+”. The “Expression on Coronary Arteries: MHC Class II” value in experiment [2] (1 mg/kg s.c., 7 to 8 days, immunoperoxidase score) is reported as “++”. For the same compound, in experiment [2] (donor hearts, 1 mg/kg s.c.), the “Vessel Intimal Thickening: Percent of Vessels” value worked out at 88% and the “Vessel Intimal Thickening: Severity (Percent of Vessel area)” value turned out to be 36%. In addition, in experiment [2] (host heart), the “Baseline (rabbit own host heart) of incidence” value amounted to 1% and the “Baseline (rabbit own host heart) of severity” value stood at 12%. Moreover, the “PC400, carbachol dosage to increase SRL 4-fold” value in experiment [3] was “about 12 BU”.
